In brackets after ≈: the same amount, converted by molar mass. Several values for one entry are separate records, joined by “and”; a condition that tells them apart may be missing. Equal values may be shown once.
What was measured:
[1] = tested on: RKOp27 cells (human colon carcinoma cell line RKO), p27kip1 not induced; assay: cells; assay type: cell-based; conditions: without expression of p27kip1, XTT, 45 h
Description: (§1) The cell lines used are the human cervical carcinoma cell line KB/HeLa (ATCC CCL17), the ovarian adenocarcinoma cell line SKOV-3 (ATCC HTB77), the human glioblastoma cell line SF-268 (NCI-503138) and the lung carcinoma cell line NCI-H460 (NCI-503473). In addition, for the investigation of the cell cycle-specific action of the compounds of the invention, an RKOp27 cell system was used (Schmidt M et al. Oncogene 2000, 19(20): 2423-2429). RKO is a human colon carcinoma cell line (ATCC CRL-2577), in which the cell cycle inhibitor p27^kip1 induced by means of the ecdysone expression system is expressed and can be led to a cell cycle arrest specifically in […]. A nonspecifically acting substance inhibits the proliferation independently of whether the RKO cell is or is not arrested in G1 or G2. Cell cycle-specific substances such as, for example, tubulin inhibitors are, however, only cytotoxic if cells are not arrested and the cell cycle is passed through.
(§2) The adherently growing tumor cell lines KB/HeLa, SKOV-3, SF-268 and NCI-H460 were cultured under standard conditions in an incubator at 37° C., 5% CO2 and 95% atmospheric humidity. On experimental day 1, the cells are detached using trypsin/EDTA and pelleted by centrifugation. Subsequently, the cell pellet is resuspended in the respective culture medium at the corresponding cell count and reacted in a 96-well microtiter plate. The plates are then cultured overnight in the incubator. The test substances are prepared as 1 mg/ml stock solutions in DMSO and diluted to the appropriate concentrations on experimental day 2 using culture medium. The substances in culture medium are then added to the cells and incubated in the incubator for 45 h. As a control, cells which are not treated with test substance are used. For the XTT assay, 1 mg/ml of XTT (sodium 3′-[1-(phenylaminocarbonyl)-3,4-tetrazolium]-bis(4-methoxy-6-nitro)benzenesulfonic acid) is dissolved in RPMI-1640 medium without Phenol Red. Additionally, a 0.383 mg/ml PMS (N-methyldibenzopyrazine methylsulfate) solution in phosphate-buffered saline solution (PBS) is prepared. On experimental day 4, 75 μl/well of XTT-PMS mixture is pipetted onto the cell plates which in the meantime have been incubated with the test substances for 45 h. For this, shortly before use, the XTT solution is mixed with the PMS solution in the ratio 50:1 (vol:vol). The cell plates are then incubated in the incubator for a further 3 h and the optical density (OD490 nm) is determined in a photometer. By means of the OD490 nm determined, the percentage inhibition is calculated relative to the control and plotted semilogarithmically in the form of a concentration-action curve. The IC50 is calculated by means of a regression analysis from the concentration-action curve using the program Graphpad Prism.
(§3) The assay is carried out in 96-well plates. […] By comparison of the activity on induced and noninduced cells, conclusions on the mechanism of action (cell cycle specificity) of the therapeutics can be drawn. […] cells are inoculated in approximately three-fold higher cell count, since division no longer takes place during the assay in comparison with uninduced cells (20000 cells/well induced, 6250 cells/well not induced). The controls are untreated cells (+/−induction). The induction is carried out with 3 μM muristerone A. On the 1st day, the cells are exposed (+/−muristerone A) and incubated at 37° C. for 24 h. On day 2, the test substance is added (control DMSO) and incubation is continued at 37° C. for a further 45 h before a standard XTT assay is carried out.

[2] = tested on: RKOp27 cells (human colon carcinoma cell line RKO), p27kip1 induced; assay: cells; assay type: cell-based; conditions: p27kip1 induced with 3 μM muristerone A, XTT, 45 h
Description: as §1, §2, §3

[3] = tested on: lung carcinoma cell line NCI-H460; assay: cells; assay type: cell-based, human; conditions: XTT, 45 h incubation
Description: (§4) Selected compounds of the invention were investigated for their antiproliferative activity in a proliferation test on established tumor cell lines.
(§5) The test used determines the cellular dehydrogenase activity and makes possible a determination of the cell vitality and indirectly the cell count.
as §1, §2

[4] = tested on: ovarian adenocarcinoma cell line SKOV-3; assay: cells; assay type: cell-based, human; conditions: XTT, 45 h incubation
Description: as §4, §5, §1, §2

[5] = tested on: human GnRH receptor (hGnRH-R) positive cell line 5C6; assay: GnRH-receptor dependent proliferation assay, 5C6; assay type: cell-based; conditions: 30 min exposure, vital cells vs untreated control = 100%
Experimental: (§6) The dose-dependent receptor-mediated inhibition of cell proliferation of selected compounds of the invention was investigated.
(§7) To study these effects a human GnRH receptor (hGnRH-R) positive cell line (5C6; Beckers et al., Eur. J. Biochem. 1995, 231: 535-543) and an hGnRH-R negative cell line (LTK^−; ECACC No. 85011432) was used.
(§8) Respective cells were exposed to 1 mL culture medium in 24 well multi-titer-plates (MTPs) with a cell number of 15000 cells per well. The cell number is adjusted in such a way that after 5 days of testing the untreated control cells are still in the exponential growth phase.
(§9) Test compounds are given to the cultured cells after 4 hours of initial growth (adherence) in a volume of 100 μL to yield the final concentrations given in table 2.
(§10) After 30 min of incubation at 37° C. the entire culture medium is sucked off and the cells are washed twice with culture medium without test compounds. After the washing the cells are placed into an incubator (at 37° C., 5% CO2 and 95% atmospheric humidity) and incubated for further 4 days.
(§11) For the determination of the cell number after incubation the cells are detached using trypsin/EDTA and centrifuged. The number of vital cells and the total cell number are counted using a Vi-Cell Analyzer (Beckman Coulter).
(§12) The number of vital cells is analyzed in comparison with untreated control cells (=100%). Only cell groups (respective wells) are considered of which the total cell viability is more than 90%, i.e. inhibition of cell proliferation by unspecific toxicity can be excluded.
(§13) The proliferation status of untreated control cells after 96 hours is set to 100%.

[6] = tested on: hGnRH-R negative cell line LTK−; assay: GnRH-receptor dependent proliferation assay, LTK-; assay type: cell-based; conditions: 30 min exposure, vital cells vs untreated control = 100%
Experimental: as §6, §7, §8, §9, §10, §11, §12, §13

[7] = tested on: human cervical carcinoma cell line KB/HeLa; assay: cells; assay type: cell-based; conditions: XTT, 45 h incubation
Description: as §4, §5, §1, §2

[8] = tested on: human glioblastoma cell line SF-268; assay: cells; assay type: cell-based; conditions: XTT, 45 h incubation
Description: as §4, §5, §1, §2

Q: COc1cccc2c1C(=O)c1c(O)c3c(c(O)c1C2=O)C[C@@](O)(C(=O)COC(=O)CCCC(=O)NCCCC[C@@H](NC(=O)[C@H](Cc1ccc(O)cc1)NC(=O)[C@H](CO)NC(=O)[C@H](Cc1c[nH]c2ccccc12)NC(=O)[C@H](Cc1c[nH]cn1)NC(=O)[C@@H]1CCC(=O)N1)C(=O)N[C@@H](CC(C)C)C(=O)N[C@@H](CCCNC(=N)N)C(=O)N1CCC[C@H]1C(=O)NCC(N)=O)C[C@@H]3O[C@H]1C[C@H](N)[C@H](O)[C@H](C)O1 [AN-152, reference compound] was tested. Which “IC50 RKOp27” value [1] did it give?
A: 0.587 µg/mL (≈ 0.31 µM)

Q: What about the “IC50 RKOp27 induced” value [2] of the same compound?
A: 0.632 µg/mL (≈ 0.334 µM)

Q: And the “IC50 NCI-H460” value [3]?
A: 0.558 µg/mL (≈ 0.295 µM)

Q: And the “IC50 SKOV-3” value [4]?
A: 1.238 µg/mL (≈ 0.654 µM)

Q: And the “proliferation status after 96 hours, cell line 5C6, 100 nM” value [5]?
A: 43.9% and 42.1%

Q: And the “proliferation status after 96 hours, cell line LTK−, 100 nM” value [6]?
A: 102.3% and 101.3%

Q: And the “IC50 KB/HELA” value [7]?
A: 0.871 µg/mL (≈ 0.46 µM)

Q: And the “IC50 SF-268” value [8]?
A: 1.258 µg/mL (≈ 0.665 µM)

Q: Which “IC50 RKOp27” value [1] does the source give for C/C=C/[C@H](OC(=O)CCC(=O)NCCCC[C@H](NC(=O)[C@H](Cc1ccc(O)cc1)NC(=O)[C@H](CO)NC(=O)[C@H](Cc1c[nH]c2ccccc12)NC(=O)[C@H](Cc1cnc[nH]1)NC(=O)[C@@H]1CCC(=O)N1)C(=O)N[C@@H](CC(C)C)C(=O)N[C@@H](CCCNC(=N)N)C(=O)N1CCC[C@H]1C(=O)NCC(N)=O)C(C)(C)[C@@H]1C\C=C/C=C\C=C\[C@H](OC)Cc2nc(co2)C(=O)O[C@H](C(C)(C)[C@H](/C=C/C)OC(=O)CCC(=O)NCCCC[C@H](NC(=O)[C@H](Cc2ccc(O)cc2)NC(=O)[C@H](CO)NC(=O)[C@H](Cc2c[nH]c3ccccc23)NC(=O)[C@H](Cc2cnc[nH]2)NC(=O)[C@@H]2CCC(=O)N2)C(=O)N[C@@H](CC(C)C)C(=O)N[C@@H](CCCNC(=N)N)C(=O)N2CCC[C@H]2C(=O)NCC(N)=O)C/C=C\[C@H]2O[C@H]2/C=C/C=C\c2nc(co2)C(=O)O1 [compound 15, Disorazole A1 Bis Hemi Succinyl [D-Lys^6]LHRH] here?
A: ca. 3.16 μg/ml

Q: What about the “IC50 RKOp27 induced” value [2] of the same compound?
A: >3.16 µg/mL

Q: What about the “IC50 NCI-H460” value [3] of the same compound?
A: >3.16 µg/mL

Q: And the “IC50 SKOV-3” value [4]?
A: >3.16 µg/mL

Q: What about the “proliferation status after 96 hours, cell line 5C6, 0.1 nM” value ([5]; 0.1 nM) of the same compound?
A: 95.1%

Q: What about the “proliferation status after 96 hours, cell line 5C6, 1 nM” value ([5]; 1 nM) of the same compound?
A: 98.6%

Q: And the “proliferation status after 96 hours, cell line 5C6, 10 nM” value ([5]; 10 nM)?
A: 66.6%

Q: What about the “proliferation status after 96 hours, cell line 5C6, 100 nM” value [5] of the same compound?
A: 43.0%

Q: And the “proliferation status after 96 hours, cell line LTK−, 0.1 nM” value [6]?
A: 108.6%

Q: What about the “proliferation status after 96 hours, cell line LTK−, 1 nM” value [6] of the same compound?
A: 111.3%

Q: And the “proliferation status after 96 hours, cell line LTK−, 10 nM” value [6]?
A: 108.0%

Q: What about the “proliferation status after 96 hours, cell line LTK−, 100 nM” value [6] of the same compound?
A: 101.7%

Q: And the “IC50 KB/HELA” value [7]?
A: >3.16 µg/mL

Q: And the “IC50 SF-268” value [8]?
A: >3.16 µg/mL

Q: Which results are given for COc1cccc2c1C(=O)c1c(O)c3c(c(O)c1C2=O)C[C@@](O)(C(=O)CO)C[C@@H]3O[C@H]1C[C@H](N)[C@H](O)[C@H](C)O1 [doxorubicin, reference compound]?
A: IC50 ([1]; Homo sapiens, RKOp27, read-out: IC50 RKOp27): 0.082 µg/mL (≈ 0.151 µM); IC50 ([2]; Homo sapiens, RKOp27, read-out: IC50 RKOp27 induced): 0.124 µg/mL (≈ 0.228 µM); IC50 ([3]; Homo sapiens, NCI-H460, read-out: IC50 NCI-H460): 0.105 µg/mL (≈ 0.193 µM); IC50 ([4]; Homo sapiens, SK-OV-3, read-out: IC50 SKOV-3): 0.347 µg/mL (≈ 0.638 µM); IC50 ([7]; Homo sapiens, HeLa, read-out: IC50 KB/HELA): 0.32 µg/mL (≈ 0.589 µM); IC50 ([8]; Homo sapiens, SF-268, read-out: IC50 SF-268): 0.305 µg/mL (≈ 0.561 µM)

Q: Which results are given for “Disorazole E1 Mono Hemi Succinyl [D-Lys^6]LHRH, Both Regio-Isomers [compounds 13/14]”?
A: IC50 RKOp27 [1]: 0.01724 µg/mL; IC50 RKOp27 induced [2]: >3.16 µg/mL; IC50 NCI-H460 [3]: 0.0128 µg/mL; IC50 SKOV-3 [4]: 0.01685 µg/mL; proliferation status after 96 hours, cell line LTK−, 0.1 nM [6]: 98.6%; proliferation status after 96 hours, cell line LTK−, 1 nM [6]: 98.8%; proliferation status after 96 hours, cell line LTK−, 10 nM [6]: 93.2%; proliferation status after 96 hours, cell line LTK−, 100 nM [6]: 27.0%; IC50 KB/HELA [7]: 0.01891 µg/mL; IC50 SF-268 [8]: 0.05566 µg/mL
